The subject of assay [1] is SHSY5Y. Nature of the assay: Neurite outgrowth: microscopy and MAP2 gene expression (qPCR). The format is cell-based, human. The method, then: SHSY5Y were plated in 10 cm petri dishes a density of 2×10^6 cells. After 24 h cells were treated in differentiation medium (growth medium containing 1% FBS without RA) with 10% bacteria supernatants or YCFA+, 10 uM RA, 200 uM hexanoic acid or 200 uM valproic acid, for 17 hrs. There after representative images were taken using phase contrast EVOS XL core microscope at 40×/0.65 magnification. Cells were collected, and total RNA was isolated according to RNeasy mini kit protocol (Qiagen). cDNAs were made using the high capacity cDNA reverse transcription kit (Applied Biosystems). Gene expression was measured using qPCR. GAPDH was used as internal control. Fold change was calculated according to the 2^(−ΔΔct) method.
Cells were seeded onto 8 well chamber slides (Marienfeld Laboratory Glassware) at 5×10^4 cells/well overnight and were treated with 10% bacterial supernatant for 24 hrs. For differentiation, cells were treated with 10 nM Retinoic acid for 5 days before treating with bacterial supernatant. Cells were then fixed with 4% paraformaldehyde in PBS for 20 minutes at room temperature (RT). Fixed cells were washed with PBS, and permeabilized with 1% Triton X-100 in PBS for 10 minutes. After washing with PBS, the slides were incubated with blocking buffer (4% BSA/PBS) for 1 hr at RT before adding anti-MAP2 antibody (sc-74421, Santa Cruz Biotechnology Inc) diluted in 1% BSA/PBS for 12 hr at 4° C. They were then washed twice with PBS, followed by incubation with Alexa Flour 488 conjugated anti-mouse (Molecular Probes Inc) and Alexa Flour 594 conjugated Phalloidin (ab 176757, Abcam) for 1 hr at RT. After washing 3× with PBS, the slides were mounted with Vectorshield[…] containing DAPI (Sigma, Aldrich). Slides were viewed using a Zeiss Axioscope microscope equipped with a 63×/1.2 W Korr objective and filter sets suitable for detection of the fluorochromes used. Manual exposure times for the digital acquisition of images immuno-labelled with MAP-2 were kept constant allowing comparison between different wells and treatments. Phalloidin (F-actin) and DAPI exposure times varied to suit the field of view. Randomised fields of view were acquired using a QImaging camera controlled by Image Pro Plus software. Images were saved as TIFs and opened in Adobe Photoshop CC 2015.1.2 and overlays of the MAP-2, DAPI and Phalloidion images overlaid and merged. Representative images were selected to illustrate the differences in abundance and location of the proteins examined

Assay [2] can be described thus: Lipid peroxidation, thiobarbituric reactive substances assay (TBARs). The settings on record: positive control butylated hydroxytoluene (1% w/v). The method, then: Bacterial cells (10^6 or greater) were collected and centrifuged, a wash step was performed with isotonic saline before the pellet was re-suspended in potassium chloride assay buffer. The suspension was sonicated on ice for 10 minutes and then spun down at 10,000×g for 10 minutes. The supernatant was removed and the level of lipid peroxidation evaluated using the thiobarbituric reactive substances assay.

Assay [3] has as its system HDAC. Nature of the assay: HDAC inhibition on whole HT-29 cells and HT-29 cell lysate. The format is cell-based. The method, then: Bacterial culture and cell-free supernatant collection Pure cultures of bacteria were grown anaerobically in YCFA broth until they reached their stationary growth phase. Cultures were centrifuged at 5,000×g for 5 minutes and the cell-free supernatant (CFS) was filtered using a 0.2 μM filter (Millipore, UK). 1 mL aliquots of the CFS were stored at −80° C. until use. Sodium butyrate, hexanoic and valeric acid were obtained from Sigma Aldrich (UK) and suspensions were prepared in YCFA broth.
To investigate which metabolites were responsible for the strain-induced HDAC inhibition, different concentrations of hexanoic acid, valeric acid and sodium butyrate were measured for their HDAC inhibition on whole HT-29 cells and on HT-29 cell lysate.

Assay [4] deals with MPTP lesioned mice. Put plainly: Dopamine, DOPAC and HVA in striatum of MPTP lesioned mice (HPLC). It is filed as in vivo, mouse. The settings on record: 2 x 10^8 bacteria p.o. 18 days, MPTP 4 × 20 mg/kg i.p. day 0, day 4 sampling. As to the method:
The aim of this study was to evaluate the effects of MRX0029 anaerobic bacteria using MPTP lesioned mice. 48 male mice were allocated to 4 different treatment groups (groups A, B, E and I, with n=12 animals in each group). The treatment groups are shown in Table 1 below and the project time course is outlined below.
Groups A, B, E and I were treated daily for 18 days via oral gavage with either bacteria (MRx0029-group E), or vehicle (PBS). Oral treatment started 14 days before MPTP lesion. Group I animals received a daily vehicle (PBS) p.o. (per oral) treatment and were injected i.p. (intraperitoneal) with the reference drug 30 min before and 90 min after first MPTP on day 0. The application volume for p.o. and vehicle treatment was 200 μl per mouse. Bacteria strain of group E was from glycerol stocks (gly). For oral treatment, gavages for applications were stored in vial containing 70% Ethanol and were flushed before and after each use with distilled water. Every treatment group had its own gavage and ethanol vial and distilled water vial. The tubes and gavages were not changed between the groups. […]
Concentrations of DA, DOPAC and HVA in the striatal samples were determined by column liquid chromatography with electrochemical detection [110; 111]. […] The chromatograms were recorded and integrated by use of a computerized data acquisition system (DataApex, Prague, Czech Republic). […]

Regarding Megasphaera massiliensis [MRx0029], in assay [1] (undifferentiated SHSY-5Y cells, 10% bacteria supernatant, 200 uM hexanoic acid or 200 uM valproic acid, 17 hrs), the “neurite outgrowth / neuron-like phenotype” value is “induced a neuron-like phenotype”. Besides, in assay [1] (undifferentiated neuroblastoma cells, qPCR, GAPDH internal control), the MAP2 expression entry was “significantly upregulates”. In assay [2], the “inhibition of lipid peroxidation” value is on record as “approximately 20%”. For the same substance, in assay [3] (HT-29 cell lysate), the “HDAC inhibition, HT29 cell lysate” value is “strong HDAC inhibition”. For the same substance, the “HDAC inhibition, HT29 whole cell” value in assay [3] (whole HT-29 cells) is given as “strong HDAC inhibition”. Further, in assay [4], the DOPAC in striatum entry is on record as “recover production” and the Dopamine in striatum result is reported as “recover production”.

These data come from patent US11660319B2, “Compositions comprising bacterial strains” (priority 2017, dated 2023).
